{
  "source": "patent US12685724B2",
  "about": "“Antidepressant therapy” (ICHILOV TECH LTD., priority 2020, dated 2026)",
  "key": {"[1]": {"tested_on": "subjects with CCR5-tropic HIV-1", "settings": "cited from earlier work"}, "[2]": {"tested_on": "simian immunodeficiency virus (SIV)-mediated CNS disease", "settings": "rhesus macaques; cited from earlier work"}, "[3]": {"tested_on": "hemiparkinsonian monkeys", "settings": "cited from earlier work"}, "[4]": {"tested_on": "patients suffering from post-stroke depression (PSD)", "test": "Clinical study of maraviroc in patients suffering from post-stroke depression (PSD)", "assay_type": "in vivo, human", "experimental": "A clinical study to evaluate the safety, tolerability and efficacy of maraviroc in patients suffering from post-stroke depression (PSD) was performed as follows:\nTen men and women aged 50 to 86 years who experience stroke, i.e., cerebral infarction or transient ischemic attack (TIA) prior to the initiation of the study were enrolled to the study. These subjects also experienced a major depressive episode that develops within 12 months from the stroke/TIA. Clinical diagnosis of stroke was performed according to the World Health Organization Monica Project.\nExclusion criteria comprise e.g. 1) significant acute neurologic illness including: impaired consciousness, Parkinson's disease, Huntington's chorea, progressive supranuclear paralysis, brain tumor, subdural hematoma, multiple sclerosis, hydrocephalus, Binswanger's disease, or severe aphasia, 2) patients diagnosed with dementia or significant cognitive impairment as defined by a MoCA score <20 at screening, or other neurological conditions (multiple sclerosis, Parkinson's disease, epilepsy, Huntington's chorea, brain tumor, subdural hematoma, multiple sclerosis, hydrocephalus, or Binswanger's disease), 3) positive serology for Hepatitis B or C; or for HIV.\nEach subject received 300 mg maraviroc daily or 150 mg daily for 10 weeks. Post-treatment follow-up was conducted for 8 weeks after the last dose of Maraviroc. During the 10 weeks of maraviroc treatment the subjects were evaluated every two weeks, and during the 8 weeks of follow-up the subjects were evaluated at the 4th and 8th week after the last dose of maraviroc.\nThe subjects were evaluated for the efficacy of maraviroc by assessing the improvement in depressive symptoms determined by a change from baseline (i.e., Day 1 pre-dose) in the Montgomery-Asberg Depression Rating Scale (MADRS) total score. Other assessments included, for example, assessment of depressive symptoms by the 16-item Quick Inventory of Depressive Symptomatology-Self Report (QIDS-SR16); assessment of remission, defined as a MADRS total score ≤10; assessment of response, defined as a ≥50% reduction from baseline in MADRS total score; evaluation of symptoms of anxiety as assessed by the Generalized Anxiety Disorder 7-item Scale (GAD-7)—each item is rated on a 4-point scale (0 to 3), with the total score range from 0-21 (higher scores indicating more anxiety); and evaluation of cognitive status, as assessed by cognitive score based on repeatable computerized battery of cognitive tests (Neurotrax) and Montreal Cognitive Assessment (MoCA).\nAdditional assessments include e.g. the clinical global impression-improvement (CGI-I), a 7 point scale that requires the clinician to assess how much the patient's illness has improved or worsened relative to a baseline state at the beginning of the intervention; the clinical global impression-severity (CGI-S), which evaluates the severity of psychopathology from 1 to 7, and provides an overall clinician-determined summary measure that takes into account all available information, including knowledge of the subject's history, psychosocial circumstances, symptoms, behavior, and the impact of the symptoms on the subject's ability to function; Patient Global Impression scales, commonly used measures of symptom severity, treatment response and the efficacy of treatments; the patient global impression-severity (PGI-S), that provides an overall patient-rated summary measure that assesses the severity of the subject's MDD; the patient global impression of change (PGI-C) which provides an overall patient-rated summary that assesses subject perception of change in their MDD since starting study treatment; the EuroQol Group; 5 dimension (EQ-5D) which is a standardized 2-part instrument for use as a measure of health outcome, primarily designed for self-completion by respondents. […]"}},
  "data": [
    {"smiles": "Cc1nnc(C(C)C)n1[C@@H]1C[C@H]2CC[C@@H](C1)N2CC[C@H](NC(=O)C1CCC(F)(F)CC1)c1ccccc1", "note": "[maraviroc]", "values": [
      {"measurement": "potential treatment-emergent adverse events", "setting": "[1]; pooled data from two trials in subjects with CCR5-tropic HIV-1", "value": "Depressive disorders and anxiety symptoms"},
      {"measurement": "most common adverse events, at higher frequency compared with placebo", "setting": "[1]; treatment-experienced subjects", "value": "upper respiratory tract infections, cough, pyrexia, rash, and dizziness"},
      {"measurement": "SIV-mediated CNS disease (SIV RNA in CSF and brain, CD68 immunostaining, axonal APP immunostaining)", "setting": "[2]", "value": "inhibited simian immunodeficiency virus (SIV)-mediated CNS disease"},
      {"measurement": "effect on the nigrostriatum", "setting": "[3]", "value": "protects the nigrostriatum"},
      {"measurement": "infiltration of T cells into the central nervous system", "setting": "[3]", "value": "attenuates the infiltration of T cells into the central nervous system"},
      {"measurement": "effect on anxiety symptoms", "setting": "[4]; PSD patients, maraviroc 300 mg daily, GAD-7", "value": "effective in reducing anxiety symptoms"},
      {"measurement": "side effects reported by the participants during the study", "setting": "[4]; PSD patients, maraviroc 300 mg once daily oral", "value": "1 transient impotence, 1 severe constipation (drug-unrelated)"},
      {"measurement": "MADRS score following 10 weeks of treatment", "setting": "[4]; PSD patients, maraviroc 300 mg once daily oral, 10 weeks, initial MADRS about 35-40", "value": "5-10"},
      {"measurement": "MADRS score, best outcome (normal/symptom-absent, remission)", "setting": "[4]; PSD patients, maraviroc 300 mg once daily oral, initial MADRS >34", "value": "< 7"},
      {"measurement": "GAD-7 at data collection", "setting": "[4]; Patient 1, 10 weeks maraviroc 300 mg daily, add-on therapy, GAD-7 at admission 17 (severe)", "value": 10},
      {"measurement": "GAD-7 at data collection", "setting": "[4]; Patient 2, 10 weeks maraviroc 300 mg daily, add-on therapy, GAD-7 at admission 6 (mild)", "value": 6},
      {"measurement": "GAD-7 at data collection", "setting": "[4]; Patient 3, week 7 of maraviroc 300 mg daily, add-on therapy, GAD-7 at admission 8 (mild)", "value": 7},
      {"measurement": "CGI severity (CGI-S) after four weeks of treatment", "setting": "[4]; Patient 4, maraviroc monotherapy 300 mg daily, CGI=5 (markedly ill) at admission", "value": 3},
      {"measurement": "GAD-7 at data collection", "setting": "[4]; Patient 4, week 4 of maraviroc 300 mg daily, monotherapy, GAD-7 at admission 14 (moderate)", "value": 8},
      {"measurement": "depressive symptoms on quick inventory of depressive symptoms-self report (QIDS-SR)", "setting": "[4]; all 4 PSD patients, maraviroc 300 mg once daily oral, 4-10 weeks", "value": "All patients improved their depressive symptoms"},
      {"measurement": "MADRS score after treatment", "setting": "[4]; all 4 PSD patients, maraviroc 300 mg once daily oral, 4-10 weeks, initial MADRS about 35-40 (>34, severe)", "value": "< 20"},
      {"measurement": "time from first dose to beginning of treatment effects (time to response), depressive scores evaluated by senior psychiatrist", "setting": "[4]; all 4 PSD patients, maraviroc 300 mg once daily oral, add-on (patients 1-3) or monotherapy (patient 4)", "value": "1-2 weeks"},
      {"measurement": "time from first dose to beginning of self-reported treatment effect", "setting": "[4]; all 4 PSD patients, self-report depressive scores, maraviroc 300 mg once daily oral", "value": "1-2 weeks"},
      {"measurement": "safety and tolerability", "setting": "[4]; human PSD patients", "value": "well-tolerated without safety concerns"}
    ]}
  ]
}
